One may read the logD as the decadic logarithm of the distribution of all forms, ionised or not, between an organic phase and buffer at a given pH. A higher logD goes with a more lipophilic compound.

Consider three compounds from PMC5902495, “Synthesis of Symmetrical Tetrameric Conjugates of the Radiolanthanide Chelator DOTPI for Application in Endoradiotherapy by Means of Click Chemistry” (Frontiers in Chemistry, 2018).

Data set [1] can be described thus: Octanol-water distribution coefficients. The class given is physicochemical. The following applies: n-octanol / PBS pH 7.4, ^177Lu-labeled tracer, n = 6. How it is done: Approximately 1 MBq of the ^177Lu-labeled tracer was added to a mixture of 0.5 mL phosphate buffered saline (PBS, pH 7.4) and 0.5 mL n-octanol in an Eppendorf tube (n = 6). After vigorous mixing of the suspension for 3 min, the vial was centrifuged at 11.500 g for 3 min for phase separation. 200 μL aliquots of each phase were withdrawn and measured in a gamma counter.

The subject of data set [2] is subcutaneous LNCaP (PSMA-expressing human prostate carcinoma) xenografts. The data set can be described thus: Biodistribution in SCID mice bearing LNCaP xenografts. The class given is in vivo. The following applies: compared to ^177Lu-DOTPI(DBCO-KuE)4. How it is done:
The experiments were carried out in accordance with the German Animal Welfare Act (Tierschutzgesetz), and were previously approved by the responsible authority (Regierung von Oberbayern). The animal model, male CB-17 SCID mice bearing subcutaneous LNCaP tumor xenografts, were generated as described before (Weineisen et al., [2014]). Approximately 1–4 MBq (varying molar activities; absolute molar amounts of active compound ranging from 0.11 to 0.15 nmol) of the ^177Lu-labeled PSMA inhibitors were injected into the tail vein of the animals, which were sacrificed 1 and 24 h post injection (n = 3 per tracer per time point). Selected organs were removed, weighted and the activities contained were measured in a γ-counter.

Data set [3] can be described thus: Protonation constants of ligands by pH-potentiometry. Format: physicochemical. The following applies: 25°C, I = 0.15 M NaCl. The source says:
(§1) For determining the protonation constants of DOTPI(Chx)4 and DOTPI three parallel pH-potentiometric titration were made with 0.2 M NaOH in 0.002 M ligand solutions. The stability and protonation constants of the Ca^II and Zn^II complexes formed with DOTPI(Chx)4 and DOTPI ligands have been determined by direct pH-potentiometric titration made at 1:1 and 2:1 metal to ligand concentration ratios. (the concentration of ligands was 0.002 M). For the calculation of the logKML and logKMLHi values, the mL base—pH data used were obtained in the pH range 1.7–12.0.
(§2) For pH measurements and titrations, a Metrohm 785 DMP Titrino titration workstation and a Metrohm-6.0233.100 combined electrode were used. Equilibrium measurements were carried out at a constant ionic strength (0.15 M NaCl) in 6 mL samples at 25°C. The solutions were stirred, and constantly purged with N2. The titrations were performed in a pH range of 1.7–11.7. KH-phthalate (pH = 4.005) and borax (pH = 9.177) buffers were used to calibrate the pH meter. For calculation of [H^+] from measured pH values, the method proposed by Irving et al. was used (Irving et al., [1967]). A 0.01 M HCl solution was titrated with the standardized NaOH solution in the presence of 0.1 M NaCl. Differences between the measured (pHread) and calculated pH (–log[H^+]) values were used to obtain the equilibrium H^+ concentration from the pH values, measured in the titration experiments. For the equilibrium calculations, the stoichiometric water ionic product (pKw) is also needed to calculate [H^+] values in basic conditions. The VNaOH – pHread data pairs of the HCl – NaOH titration obtained in the pH range 10.5–12 have been used to calculate the pKw value (pKw = 13.85). For the calculation of the equilibrium constants the program PSEQUAD (Zekany and Nagypal, [1985]) was used.
(§3) 2. Protonation and complexation equilibria of DOTPI and
(§4) The protonation processes of the DOTPI and DOTPI(Chx)4, ligands have been studied by pH-potentiometry. The protonation constants (logKiH) of ligands are defined according to Eq. (1).
(§5) The stability and protonation constants of DOTPI and DOTPI(Chx)4 complexes with several metal ions were determined by pH-potentiometric and UV/Vis spectrophotometric, methods.
(§6) The stability and protonation constants of the metal complexes formed with the DOTPI and DOTPI(Chx)4, ligands, defined by Eqs. […]
(§7) where i = 1, 2, 3…5. The KML and KMHiL values characterizing the formation of DOTPI and DOTPI(Chx)4 complexes of CaII and ZnII have been calculated from the pH-potentiometric titration data obtained at 1:1 metal to ligand concentration ratios. The protonation constants of the complexes Cu(DOTPI) and Cu(DOTPI( Chx)4) were also determined by pH-potentiometric titrations, made at 1:1 metal to ligand concentration ratio. The pH-potentiometric titrations of DOTPI ligand were also performed at 2:1 metal-to-ligand ratio in order to examine the possible formation of dinuclear CaII-, ZnII-, and CuII-DOTPI complexes.
(§8) The stability and protonation constants of the dinuclear complexes formed with the DOTPI […]
(§9) where i=1 and 2. In calculating the equilibrium constants, the best fit of the mL base – pH data was obtained by assuming the formation of ML, MHL, MH 2L, MH3L, MH4L, MH5L, M2L, M2LH, and M2LH2 complexes with DOTPI and DOTPI(Chx)4.
(§10) (also on this page, place not known: ]H][LH[ ]LH[K 1i iH + − = DOTPI( Chx)4 f ormed ]L][M[ ]ML[K ML = ]H][LMH[ ]LMH[K 1i i LMHi + − = i 3 …5. Ca II Zn II -potentiometric pH - metal -to-ligand Cu II-DOTPI ]M][ML[ ]LM[K 2 LM2 = ]H][LHM[ ]LHM[K 1i2 i2 LHM i2 + − = pH MH 4L,) […]

A short description of data set [4]: Stability and protonation constants of Cu^II complexes (spectrophotometry, pH-potentiometry). Format: physicochemical. The following applies: 25°C. How it is done: Stability constant of Cu(DOTPI) complex was determined by spectrophotometry, studying the Cu^II-DOTPI systems at the absorption band of Cu^II-complex at [H^+] = 0.01– 0.2 M over the wavelength range of 400–800 nm. Concentrations of Cu^II and DOTPI were 1 mM. The H^+ concentration in the samples was adjusted by addition of calculated amounts of 2.0 M HCl, while ionic strength was not constant in these samples. Samples were kept at 25°C for a week. Absorbance values were determined at 9 wavelengths (550, 575, 600, 625, 650, 675, 700, 725, and 750 nm). For calculation of stability and protonation constants of Cu(DOTPI), molar absorptivities of CuCl2, and Cu(HxL) species (wherein x = 0, 1, 2 …5) were determined by recording the spectra of 1.0 × 10^−3, 2.0 × 10^−3 and 3.0 × 10^−3 M solutions of CuCl2 and Cu(DOTPI) in the pH range of 1.7–11.7. The protonation constants of the complexes Cu(DOTPI) and the stability and protonation constants of the dinuclear Cu2(DOTPI) complexes were determined by pH-potentiometric titrations, made at 1:1 and 2:1 metal to ligand concentration ratios.
The stability constant of the Cu(DOTPI(Chx)4) complex has been determined by spectrophotometry with the use of competition reactions between DOTPI(Chx)4 and EDTA for the Cu^2+ at pH = 5.0. The concentration of Cu(EDTA) was 0.2 mM, while that of the DOTPI(Chx)4 was varied between 0.1 and 1.0 mM (5 samples). The samples were kept at 25°C for 2 weeks. The absorbance values and the molar absorptivities of CuCl2, Cu(DOTPI(Chx)4), and Cu(EDTA) have been determined at 11 wavelength (300, 304, 308, 312, 316, 320, 324, 328, 332, 336, and 340 nm) values between 300 and 340 nm. The molar absorptivities of CuCl2, Cu(DOTPI(Chx)4), and Cu(EDTA) were deteremined in 0.05, 0.1, 0.2, 0.3, and 0.4 mM solutions. The absorbance and pH values were determined in the samples after the equilibrium was reached (the time needed to reach the equilibria was determined by spectrophotometry). The spectrophotometric measurements were made with the use of 1.0 cm cells with a Cary 1E spectrophotometer at 25°C. The protonation constants of Cu(DOTPI(Chx)4) complex were determined by pH-potentiometric titrations at 1:1 metal to ligand molar ratio.
as §2, with “The VNaOH – pHread data pairs of the HCl – NaOH titration obtained in the pH range 10.5–12 have been used to calculate the pKw value (pKw = 13.85).” left out
as §3, §4, §5
The stability and protonation constants of the metal complexes formed with the DOTPI and […]

Data set [5] in a line: Stability and protonation constants of Zn^II complexes (pH-potentiometry). Format: physicochemical. The conditions noted are these: 25°C.
Text: as §1, §2, §3, §4, §5, §6, §7, §8, §9, §10

The nature of data set [6]: Stability and protonation constants of Ca^II complexes (pH-potentiometry). The class given is physicochemical. The conditions noted are these: 25°C, I = 0.15 M NaCl, potentiometry.
Text: as §1, §2, §3, §4, §5, §6
where i = 1, 2, 3…5. The KML and KMHiL values characterizing the formation of DOTPI and DOTPI(Chx)4 complexes of CaII and ZnII have been calculated from the pH-potentiometric titration data obtained at 1:1 metal to ligand concentration ratios. The protonation constants of the complexes Cu(DOTPI) and Cu(DOTPI( Chx)4) were also determined by pH-potentiometric titrations, made at 1:1 metal to ligand concentration ratio. […]

On the set-up of data set [7]: method as in Chaves et al., [1992]. The conditions noted are these: ref Chaves et al., [1992]; cited from earlier work.

Marks after values point to notes of the source that are not given here.

In data set [1], `O=C(O)CC[C@H](NC(=O)N[C@@H](CCCCNC(=O)CCCCCNC(=O)CCc1cn(CCCNC(=O)CCP(=O)(O)CN2CCN(CP(=O)(O)CCC(=O)NCCCn3cc(CCC(=O)NCCCCCC(=O)NCCCC[C@H](NC(=O)N[C@@H](CCC(=O)O)C(=O)O)C(=O)O)nn3)CCN(CP(=O)(O)CCC(=O)NCCCn3cc(CCC(=O)NCCCCCC(=O)NCCCC[C@H](NC(=O)N[C@@H](CCC(=O)O)C(=O)O)C(=O)O)nn3)CCN(CP(=O)(O)CCC(=O)NCCCn3cc(CCC(=O)NCCCCCC(=O)NCCCC[C@H](NC(=O)N[C@@H](CCC(=O)O)C(=O)O)C(=O)O)nn3)CC2)nn1)C(=O)O)C(=O)O` (single isomer, unassigned) [^177Lu-DOTPI(Trz-KuE)4, metal not drawn] had a logD of -5 ± 0.1. For the same compound, the kidney uptake result in data set [2] (1 and 24 h post injection) is given as “remarkably low”. Also, the tumor-to-organ ratios result in data set [2] (after 24 h) is listed as “substantially better”. Besides, the “washout from non-target tissues” value in data set [2] is “much faster”.

Take `O=C(CCP(=O)(O)CN1CCN(CP(=O)(O)CCC(=O)NC2CCCCC2)CCN(CP(=O)(O)CCC(=O)NC2CCCCC2)CCN(CP(=O)(O)CCC(=O)NC2CCCCC2)CC1)NC1CCCCC1` [DOTPI(Chx)4]: in data set [3], the “log K1H” value is 9.89 (1), the “log K2H” value is on record as 7.73 (1) and the “log K3H” value is recorded as 3.34 (1). The “Σlog KiH (total basicity)” value in data set [3] (distant carboxylate groups of DOTPI not considered) turned out to be 20.96. In addition, in data set [4] (0.15 M NaCl), the “protonation constant CuH2L” value is given as 1.55 (2) and the “protonation constant CuHL” value is 2.46 (1). Moreover, the “logKML, CuL” value in data set [4] (I = 0.15 M NaCl, UV/Vis spectroscopy) was 20.42 (1)^a. Also, the “protonation constant ZnHL” value in data set [5] (0.15 M NaCl) is given as 2.44 (8). The “logKML, ZnL” value in data set [5] (I = 0.15 M NaCl, potentiometry) is 15.13 (1)^b. Also, in data set [6], the “logKML, CaL” value is listed as 8.99 (2)^b.

Regarding `O=C([O-])CN1CCN(CC(=O)O)CCN(CC(=O)O)CCN(CC(=O)O)CC1.[Na+]` [[Na(DOTA)]^3−], the logKNaL in data set [7] is on record as 4.38.
